In patent US10161008B2, “miR-193a-3p and associated genes predict tumorigenesis and chemotherapy outcomes” (Genedia Biotech Co., Ltd., priority 2011, dated 2018):
≈ marks a conversion by molar mass, not a printed value. Where two headings read alike, the source gives them in different places.

Tests used:
[1] = tested on: miR-193a-3p; test: qRT-PCR of miR-193a-3p after demethylation in QGY-7703; format: cell-based, human; conditions: QGY-7703, treated 2 and 4 days
Source text: A. The physical map of the miR-193 gene region for DNA methylation analysis. (FIG. 3A discloses SEQ ID NO: 23) B. The methylation state of each of 27 CpGs in the mock treated (Mock) and treated for 2 days (2D) and 4 days (4D). C. The methylation frequency in B (unit: mC/Total) is plotted. D. The methylation state of the miR-193a gene determined by methylation-specific PCR is shown. Control: the unmethylated (U) and methylated (M) control DNA, respectively. E. Relative miR-193a-3p level determined by qRT-PCR was plotted. (*P<0.05, **P<0.01).
RNA: Total RNA was isolated using TRIzol reagent (Invitrogen, USA). Complementary DNA synthesis was performed using a primeScript RT reagent kit (Tiangen Biotech Co., Ltd., Beijing, China) for the SYBR® Green-based real-time PCR analysis in Rotor-Gene™ 6000 system, Qiagen, Germany) of SRSF2, E2F1, ABCC8, and CASP2S/L. The expression of miR-193a-3p (Ribobio, Guangzhou, China) was assessed using the 2-Ct method with RNA content normalized to the U6 RNA (Ribobio, Guangzhou, China) and to β-actin for other genes and plotted. The high-throughput, quantitative nuclease protection based analysis (Bourzac K. M. et al. (2011) J Biotechnol, 154, 68-75; Pechhold S. et al. (2009) Nat Biotechnol, 27, 1038-1042) on a customized array that are designed for the simultaneous determination of the expression of 42 human miRs and 5 housekeeping genes was determined. […]

[2] = tested on: Bcap-37 versus ZR-75-30 breast cancer cells; test: IC50 screen of breast cancer cell lines; format: cell-based, human; conditions: Bcap-37 vs ZR-75-30
Method: The log phase of cell culture was obtained in Dulbecco modified Eagle medium (Invitrogen) containing 10% calf serum and 1% streptomycin-penicillin at 37° C. in 5% CO2. The thiazolyl blue tetrazolium blue (MTT)-based cell proliferation assay was carried out as follows: 5×10^3 to 1×10^4 cells in triplicate were cultured into each well of a 96-well plate (in triplicate) for 72 h, followed by a 3-h 37° C. incubation after addition of 10 μL (5 mg/mL) MTT salt (Sigma, USA). The OD 570-nm reading was obtained; the mean and SD of the triplicate experiments were calculated and plotted (Fei Q. et al. (2008) Acta Biochim Biophys Sin (Shanghai), 40, 466-477).
The relative OD 570-nm readings (mean and SD) in each drug-treated set and the no-drug mock sample were calculated (%) and plotted against the logarithm of the drug concentration. The linear regression parameters were determined for each curve and the IC50 extrapolated (Andrisano V. et al. (2001) J Chromatogr B Biomed Sci Appl, 753, 375-383). […]

[3] = tested on: HepG2 cells; test: MTT-based IC50 determination in HepG2; format: cell-based, human
Method: The log phase of cell culture was obtained in Dulbecco modified Eagle medium (Invitrogen) containing 10% calf serum and 1% streptomycin-penicillin at 37° C. in 5% CO2. The thiazolyl blue tetrazolium blue (MTT)-based cell proliferation assay was carried out as follows: 5×10^3 to 1×10^4 cells in triplicate were cultured into each well of a 96-well plate (in triplicate) for 72 h, followed by a 3-h 37° C. incubation after addition of 10 μL (5 mg/mL) MTT salt (Sigma, USA).
The relative OD 570-nm readings (mean and SD) in each drug-treated set and the no-drug mock sample were calculated (%) and plotted against the logarithm of the drug concentration. […] Sources of the drugs are as follows: 5-FU, Shanghai Xudong Haipu Pharmaceutical, China; gemcitabine, Jiangsu Hansen Pharmaceutical, China; epirubicin, Shenzhen Main Luck Pharmaceutical, China; irinotecan, Aventis Pharmaceutical, Germany; paclitaxel, Bristol-Myers Squibb, USA; mitomycin, Hisun Pharmaceutical, China); docetaxel, Jiangsu Hengrui Medicine, China; vinorelbine, Yangzhou Aosaikang Pharmaceutical, China; and cisplatin, Qilu Pharmaceutical Factory, China.

[4] = tested on: QGY-7703 cells; test: MTT-based IC50 determination in QGY-7703; format: cell-based, human; conditions: for IC50: Homo sapiens
Method: (§1) The log phase of cell culture was obtained in Dulbecco modified Eagle medium (Invitrogen) containing 10% calf serum and 1% streptomycin-penicillin at 37° C. in 5% CO2. The thiazolyl blue tetrazolium […] cell proliferation assay was carried out as follows: 5×10^3 to 1×10^4 cells in triplicate were cultured into each well of a 96-well plate (in triplicate) for 72 h, followed by a 3-h 37° C. incubation after addition of 10 μL (5 mg/mL) MTT salt (Sigma, USA). The OD 570-nm reading was obtained; the mean and SD of the triplicate experiments were calculated and plotted (Fei Q. et al. (2008) Acta Biochim Biophys Sin (Shanghai), 40, 466-477).
(§2) The relative OD 570-nm readings (mean and SD) in each drug-treated set and the no-drug mock sample were calculated (%) and plotted against the logarithm of the drug concentration. The linear regression parameters were determined for each curve and the IC50 extrapolated (Andrisano V. et al. (2001) J Chromatogr B Biomed Sci Appl, 753, 375-383). Sources of the drugs are as follows: 5-FU, Shanghai Xudong Haipu Pharmaceutical, China; gemcitabine, Jiangsu Hansen Pharmaceutical, China; epirubicin, Shenzhen Main Luck Pharmaceutical, China; irinotecan, Aventis Pharmaceutical, Germany; paclitaxel, Bristol-Myers Squibb, USA; mitomycin, Hisun Pharmaceutical, China); docetaxel, Jiangsu Hengrui Medicine, China; vinorelbine, Yangzhou Aosaikang Pharmaceutical, China; and cisplatin, Qilu Pharmaceutical Factory, China.

[5] = tested on: SMMC-7721 tumor xenografts; test: SMMC-7721 tumor growth in nude mice; format: in vivo
Method: After transfection with 50 nM miR-193a-3p or mock antagomirs (Ribobio, China) for 24 h, SMMC-7721 cells were collected and subcutaneously injected into the left and right flanks (1.25×10^6 cells/point) of each nude mouse (10 total), respectively. On day 12 after cell injection, 5 mice received 5-FU (75 mg/kg mouse body weight) intraperitoneal and then twice again in 1 week. The remaining 5 mice received phosphate-buffered saline (PBS) as a mock treatment control. And at the same time, the right side of all mice tumor were intratumorally injected with miR-193a-3p antagomir and left side with mock antagomir (according to manufacture instruction, Ribobio). To monitor the tumor growth, the volume was measured with a Vernier caliper on days 12, 18, 25, and 32 and calculated as Volume=W^2×L×0.5 (W and L represent the largest and next largest tumor diameters [cm]) and then plotted. Mice were humanely sacrificed on day 32, and tumors were weighed and photographed. Immunostaining was performed for ki67, SFS2, and E2F1 expression in both tumors of mouse number 4 (mock treated) mouse number 6 (5-FU treated).

[6] = tested on: CASP2L and CASP2S mRNAs of caspase 2; test: qRT-PCR of caspase 2 splice forms in SMMC-7721; format: cell-based, human; conditions: SMMC-7721, low dose 4 μg/mL, one day
Method: (§3) RNA: Total RNA was isolated using TRIzol reagent (Invitrogen, USA). Complementary DNA synthesis was performed using a primeScript RT reagent kit (Tiangen Biotech Co., Ltd., Beijing, China) for the SYBR® Green-based real-time PCR analysis in Rotor-Gene™ 6000 system, Qiagen, Germany) of SRSF2, E2F1, ABCC8, and CASP2S/L. The expression of miR-193a-3p (Ribobio, Guangzhou, China) was assessed using the 2-Ct method with RNA content normalized to the U6 RNA (Ribobio, Guangzhou, China) and to β-actin for other genes and plotted. The high-throughput, quantitative nuclease protection based analysis (Bourzac K. M. et al. (2011) J Biotechnol, 154, 68-75; Pechhold S. et al. (2009) Nat Biotechnol, 27, 1038-1042) on a customized array that are designed for the simultaneous determination of the expression of 42 human miRs and 5 housekeeping genes was determined. Only miR-193a-3p expression was shown.
(§4) In light of all the known so far, this ratio is very likely to be most robust indicator to 5-FU resistance of HCC. To determine the 5-FU impact in this system, this example treated both cell lines by 4 μg/mL (a low dose) and 300 μg/mL (a high dose) for one day, respectively. […] As expected, both RNA and protein of SRSF2 were elevated by a larger margin than E2F1 in both QGY-7703 and SMMC-7721 (FIGS. 8B, C and F). […]

[7] = tested on: SMMC-7721 cells; test: MTT-based IC50 determination in SMMC-7721; format: cell-based; conditions: Homo sapiens
Method: as §1, §2

[8] = tested on: CASP2L and CASP2S mRNAs of caspase 2; test: qRT-PCR of caspase 2 splice forms in QGY-7703; format: cell-based, human; conditions: QGY-7703, low dose 4 μg/mL, one day
Method: as §3, §4

[9] = antagomir treated SMMC-7721, 5-FU 75 mg/kg intraperitoneal, day 32
[10] = mock-transfected SMMC-7721, 5-FU 75 mg/kg intraperitoneal, day 32

## Nc1ncn([C@H]2C[C@H](O)[C@@H](CO)O2)c(=O)n1 [5-Aza-2′-deoxycytidine]
[1]
  steady state level of miR-193a-3p: raised the steady state level of miR-193a-3p

## O=c1[nH]cc(F)c(=O)[nH]1 [5-FU, 5-fluorouracil]
[2]
  Bcap-37 more resistant than ZR-75-30 (relative IC50): 69.0 fold
[3]; HepG2 vs SMMC-7721
  IC50 of HepG2 lower than SMMC-7721: 27.3 fold
[3]; Homo sapiens, HepG2, 72 h, MTT, read-out: IC50 to 5-FU
  IC50: 1.45 µg/mL (≈ 11.1 µM)
[4]; QGY-7703, 72 h, MTT, read-out: IC50 to 5-FU
  IC50: 0.39 µg/mL (≈ 3 µM)
[4]; QGY-7703, SRSF2 siRNA-transfected QGY-7703, read-out: IC50 of 5-FU
  IC50: 2.22 µg/mL (≈ 17.1 µM)
[4]; QGY-7703, miR-193a-3p mimic-transfected QGY-7703, read-out: 5-FU IC50
  IC50: 5.29 µg/mL (≈ 40.7 µM)
[4]; QGY-7703, mock mimic-transfected QGY-7703, read-out: 5-FU IC50
  IC50: 0.72 µg/mL (≈ 5.54 µM)
[4]; QGY-7703, mock siRNA-transfected QGY-7703, read-out: IC50 of 5-FU
  IC50: 0.68 µg/mL (≈ 5.23 µM)
[4]; QGY-7703 vs SMMC-7721
  IC50 of QGY-7703 lower than that of SMMC-7721: approximately 105.2 fold
[5]; [9]
  tumor volume: 0.29 cm^3
  tumor weight: 0.37 g
[5]; mock-transfected SMMC-7721, 5-FU 75 mg/kg intraperitoneal, day 25
  tumor volume: 0.45 cm^3
[5]; [10]
  tumor volume: 0.89 cm^3
  tumor weight: 0.82 g
[6]
  CASP2L RNA, fold of the untreated level: 7.38 fold
  CASP2S RNA, fold of the untreated level: 1.97 fold
[7]; SMMC-7721, 72 h, MTT, read-out: IC50 to 5-FU
  IC50: 41 µg/mL (≈ 315 µM)
[7]; SMMC-7721, miR-193a-3p antagomir-transfected SMMC-7721, read-out: 5-FU IC50
  IC50: 13.4 µg/mL (≈ 103 µM)
[7]; SMMC-7721, mock-transfected SMMC-7721, read-out: 5-FU IC50
  IC50: 46.7 µg/mL (≈ 359 µM)
[8]
  CASP2L RNA, fold of the untreated level: 14.62 fold
  CASP2S RNA, fold of the untreated level: 1.46 fold
